Entries after “also recorded” stand apart in the source; their conditions may differ.
Test system: IFN-regulated genes
Assay: DBA/1 pristane lupus model, IFN-regulated gene expression in whole blood (qPCR, IFN score)
Format: in vivo, mouse
Conditions: Pristane-induced diseased animals, DBA/1 mice, once-a-day oral dosing
Experimental: FIG. 1A through FIG. 1D show results of treatment with ER-888840 (5-((3R,5S)-3-amino-5-methylpiperidin-1-yl)quinoline-8-carbonitrile) in the DBA/1 pristane model. Figure Legend: Female DBA/1 mice at 10 weeks of age were given an intraperitoneal injection of 0.5 ml pristane or PBS. At 18 weeks of age animals were bled for pre-dosing baseline auto-antibody titers. Once-a-day oral dosing with Vehicle (Veh; 0.5% methyl-cellulose) or 11 mg/kg, 33 mg/kg, or 100 mg/kg of ER-888840 was begun at 18 weeks of age, 8 weeks after pristane injection and continued for 12 weeks of treatment. At the end of the experiment plasma samples were taken and anti-dsDNA and anti-histone (FIG. 1A) and anti-Sm/RNP and anti-RiboP (FIG. 1B) titers were determined by ELISA. (FIG. 1C) The expression of IFN-regulated genes in whole blood was measured by a qPCR panel after 8 weeks of treatment. […] (FIG. 1D) The interferon scores of individual mice were calculated (see Pharmacology Materials and Methods section for details regarding IFN score calculation) and groups compared using the Mann-Whitney t test.
FIG. 2A through 2E show results of treatment with ER-888840 in the DBA/1 pristane model. […] At the end of the experiment plasma was taken and anti-dsDNA (FIG. 2A), anti-RiboP (FIG. 2B), anti-histone (FIG. 2C) and anti-Sm/RNP (FIG. 2D) titers were determined by ELISA. […]

C[C@H]1C[C@@H](N)CN(c2ccc(C#N)c3ncccc23)C1 [ER-888840, 5-((3R,5S)-3-amino-5-methylpiperidin-1-yl)quinoline-8-carbonitrile]
effect on interferon-regulated gene expression (interferon score): dose-dependently significantly reduced interferon-regulated gene expression; also recorded: suppressed the upregulation of interferon-driven genes

Reference: patent US9663486B2, “Selectively substituted quinoline compounds” (EISAI R&D MANAGEMENT CO., LTD., priority 2013, dated 2017)
